Laboratory results reported in patent US20260274895A1, “DE NOVO DESIGNED MEMBRANE-TRAVERSING AND ORALLY BIOAVAILABLE MACROCYCLES” (UNIVERSITY OF WASHINGTON, priority 2022, published 2026).
Where a SMILES comes first, the peptide text is derived from it. [ ]: non-standard residue; d: D form. dNMeF = CN[C@H](Cc1ccccc1)C(=O)O; NMeL = CN[C@@H](CC(C)C)C(=O)O; dNMeL = CN[C@H](CC(C)C)C(=O)O; dNMeA = CN[C@H](C)C(=O)O

Conditions: PAMPA, PAMPA_Papp_Avg (apparent permeability)

SMILES	Papp [×10⁻⁶ cm/s]
CC(C)C[C@H]1NC(=O)[C@H]2CCCN2C(=O)[C@@H]2CCCN2C(=O)[C@@H](Cc2ccccc2)NC(=O)[C@@H](C(C)C)NC(=O)[C@H](CC(C)C)N(C)C(=O)[C@@H](Cc2ccccc2)NC1=O (single isomer, unassigned) [Design D7.7.p2, Pplf*Lvf]	9.06
CC(C)C[C@@H]1NC(=O)[C@@H](Cc2ccccc2)N(C)C(=O)[C@H](C(C)C)NC(=O)[C@H](C)NC(=O)[C@@H](C)NC(=O)[C@@H](Cc2ccccc2)N(C)C(=O)[C@@H]2CCCN2C(=O)[C@H](C(C)C)NC(=O)[C@@H]2CCCN2C(=O)[C@@H](C)NC1=O [Design D10.48, aPVP*faAV*fL] (cyclo(AV[dNMeF]L[dA]PVP[dNMeF][dA]))	0.716
CC[C@@H](C)[C@H]1NC(=O)[C@H](CC(C)C)N(C)C(=O)[C@H]2CCCN2C(=O)[C@H](CC(C)C)NC(=O)[C@@H](Cc2ccccc2)N(C)C(=O)[C@H](CC(C)C)N(C)C(=O)[C@@H](C(C)C)NC(=O)[C@H](C)NC(=O)[C@H]2CCCN2C(=O)[C@@H]2CCCN2C1=O [SEQ ID NO 94, *L*fLp*LiPpAv] (cyclo(A[dV][NMeL][dNMeF]L[dP][NMeL][dI]P[dP]))	2.69
CC[C@@H](C)[C@H]1NC(=O)[C@@H](CC(C)C)NC(=O)[C@@H](CC(C)C)NC(=O)[C@H]2CCCN2C(=O)[C@H](CC(C)C)N(C)C(=O)[C@@H](C)N(C)C(=O)[C@@H]2CCCN2C(=O)[C@@H]([C@H](C)CC)NC(=O)[C@@H](C(C)C)NC(=O)[C@@H]2CCCN2C1=O [Design D10.46, PviP*a*Lplli] (cyclo([NMeL][dP][dL][dL][dI]P[dV][dI]P[dNMeA]))	0.388

The next lines start with the values.

Papp [×10⁻⁶ cm/s]	SMILES
3.47	CC(C)[C@@H]1C(=O)N[C@@H](Cc2ccccc2)C(=O)N2CCC[C@H]2C(=O)N(C)[C@H](Cc2ccccc2)C(=O)N[C@H](C)C(=O)N2CCC[C@H]2C(=O)N1C (single isomer, unassigned) [Design D6.8.p1, *faP*vFP]
0.664	CC(C)C[C@@H]1C(=O)N[C@H](C)C(=O)N[C@@H](C(C)C)C(=O)N2CCC[C@@H]2C(=O)N[C@H](C(C)C)C(=O)N2CCC[C@@H]2C(=O)N2CCC[C@H]2C(=O)N[C@H](C)C(=O)N(C)[C@H](CC(C)C)C(=O)N1C [Design D9.29, vpPa*l*laVp] (cyclo([dA][dNMeL][dNMeL][dA]V[dP][dV][dP]P))
0.993	CC(C)C[C@@H]1NC(=O)[C@@H](C)NC(=O)[C@H]2CCCN2C(=O)[C@@H]2CCCN2C(=O)[C@@H](C(C)C)NC(=O)[C@@H](CC(C)C)N(C)C(=O)[C@H]2CCCN2C(=O)[C@H]2CCCN2C(=O)[C@@H](C)N(C)C(=O)[C@H](CC(C)C)N(C)C(=O)[C@@H](Cc2ccccc2)NC1=O [Design D11.16, Lf*L*app*lvPpa] (cyclo(L[dF][NMeL][dNMeA][dP][dP][dNMeL][dV]P[dP][dA]))
